In US20090191183A1, “SUBSTITUTED INDOLES” (AUSPEX PHARMACEUTICALS, INC., priority 2007, published 2009):

Experiments:
[1] = In vitro human liver microsomal (HLM) stability assay; type: in vitro ADME; details: vs non-isotopically enriched drug; 1 mg per mL liver microsome protein, 1 μM, 37° C.; + marks the range of the column head
Description: Liver microsomal stability assays are conducted at 1 mg per mL liver microsome protein with an NADPH-generating system in 2% NaHCO3 (2.2 mM NADPH, 25.6 mM glucose 6-phosphate, 6 units per mL glucose 6-phosphate dehydrogenase and 3.3 mM MgCl2). Test compounds are prepared as solutions in 20% acetonitrile-water and added to the assay mixture (final assay concentration 1 μM) and incubated at 37° C. Final concentration of acetonitrile in the assay should be <1%. Aliquots (50 μL) are taken out at times 0, 7.5, 15, 22.5, and 30 min, and diluted with ice cold acetonitrile (200 μL) to stop the reactions. Samples are centrifuged at 12,000 RPM for 10 min to precipitate proteins. Supernatants are transferred to micro centrifuge tubes and stored for LC/MS/MS analysis of the degradation half-life of the test compounds.

[2] = target: T1, cytochrome P450 CYP2C9 (Homo sapiens, UniProt P11712); details: human liver microsomes; at concentrations near clinically achieved total plasma concentrations; cited from earlier work
T1 construct: in vitro studies using human liver microsomes; from tissue; host or cells: human liver microsomes
T1 sequence (P11712 whole entry): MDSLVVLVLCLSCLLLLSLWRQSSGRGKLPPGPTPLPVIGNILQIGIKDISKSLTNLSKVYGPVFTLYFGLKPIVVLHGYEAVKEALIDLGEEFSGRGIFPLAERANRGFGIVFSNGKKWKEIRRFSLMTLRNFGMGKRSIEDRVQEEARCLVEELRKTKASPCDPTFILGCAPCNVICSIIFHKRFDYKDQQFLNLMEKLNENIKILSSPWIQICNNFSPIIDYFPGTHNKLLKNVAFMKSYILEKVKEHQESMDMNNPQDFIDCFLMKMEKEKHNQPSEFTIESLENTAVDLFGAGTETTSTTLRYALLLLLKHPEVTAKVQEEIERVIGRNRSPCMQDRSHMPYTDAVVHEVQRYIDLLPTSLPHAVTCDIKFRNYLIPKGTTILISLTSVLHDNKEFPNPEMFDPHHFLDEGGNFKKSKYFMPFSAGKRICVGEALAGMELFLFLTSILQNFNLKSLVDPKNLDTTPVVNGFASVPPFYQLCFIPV

[3] = target: T2, cytochrome P450 CYP3A4 (Homo sapiens, UniProt P08684); details: human liver microsomes; at concentrations near clinically achieved total plasma concentrations; cited from earlier work
T2 construct: in vitro studies using human liver microsomes; from tissue; host or cells: human liver microsomes
T2 sequence (P08684 whole entry): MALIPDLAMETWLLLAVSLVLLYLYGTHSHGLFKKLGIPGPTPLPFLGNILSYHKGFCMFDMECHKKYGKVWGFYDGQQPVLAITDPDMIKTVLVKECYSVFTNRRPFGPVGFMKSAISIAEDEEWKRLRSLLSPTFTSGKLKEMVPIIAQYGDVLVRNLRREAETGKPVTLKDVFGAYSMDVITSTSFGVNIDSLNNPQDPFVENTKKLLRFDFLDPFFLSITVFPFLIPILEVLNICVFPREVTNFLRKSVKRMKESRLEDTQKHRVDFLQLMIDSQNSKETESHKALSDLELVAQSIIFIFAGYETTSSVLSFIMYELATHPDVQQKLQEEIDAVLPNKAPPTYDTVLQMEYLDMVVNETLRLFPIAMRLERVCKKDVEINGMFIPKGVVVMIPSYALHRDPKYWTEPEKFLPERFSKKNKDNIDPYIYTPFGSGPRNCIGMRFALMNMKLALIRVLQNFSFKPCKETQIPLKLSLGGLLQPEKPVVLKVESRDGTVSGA

[4] = treatment of mild to moderate asthma; cited from earlier work

## COc1cc(C(=O)NS(=O)(=O)c2ccccc2C)ccc1Cc1cn(C)c2ccc(NC(=O)OC3CCCC3)cc12 [Example 1, reference compound]
[1]
  % increase of HLM degradation half-life, 5%-15%: + (5%-15%)

## [2H]C([2H])([2H])Oc1cc(C(=O)NS(=O)(=O)c2ccccc2C)ccc1Cc1cn(C)c2ccc(NC(=O)OC3CCCC3)cc12 [Example 2]
[1]
  % increase of HLM degradation half-life, 5%-15%: + (5%-15%)

## [2H]C([2H])([2H])c1ccccc1S(=O)(=O)NC(=O)c1ccc(Cc2cn(C)c3ccc(NC(=O)OC4CCCC4)cc23)c(OC)c1 [Example 3]
[1]
  % increase of HLM degradation half-life, 15%-25%: + (15%-25%)

## [2H]C([2H])([2H])n1cc(Cc2ccc(C(=O)NS(=O)(=O)c3ccccc3C)cc2OC)c2cc(NC(=O)OC3CCCC3)ccc21 [Example 4]
[1]
  % increase of HLM degradation half-life, 15%-25%: + (15%-25%)

## [2H]C([2H])([2H])Oc1cc(C(=O)NS(=O)(=O)c2ccccc2C([2H])([2H])[2H])ccc1Cc1cn(C([2H])([2H])[2H])c2ccc(NC(=O)OC3([2H])C([2H])([2H])C([2H])([2H])C([2H])([2H])C3([2H])[2H])cc12 [Example 6]
[1]
  % increase of HLM degradation half-life, 15%-25%: + (15%-25%)

## [2H]C([2H])([2H])Oc1cc(C(=O)NS(=O)(=O)c2ccccc2C([2H])([2H])[2H])ccc1Cc1cn(C([2H])([2H])[2H])c2ccc(NC(=O)OC3CCCC3)cc12 [Example 7]
[1]
  % increase of HLM degradation half-life, column >25%: + (>25%)

## COc1cc(C(=O)NS(=O)(=O)c2ccccc2C)ccc1Cc1cn(C)c2ccc(NC(=O)OC3CCCC3)cc12 [zafirlukast, 4-(5-cyclopentyloxy-carbonylamino-1-methyl-indol-3-ylmethyl)-3-methoxy-N—O-tolylsulfonylbenzamide]
[2]
  inhibition of cytochrome P450 CYP2C9 isoenzyme: inhibits
[3]
  inhibition of cytochrome P450 CYP3A4 isoenzyme: inhibits
[4]
  hepatotoxicity: occasional idiosyncratic hepatotoxicity
